# Experimental data: ChEMBL document CHEMBL1275379, “Indazolylpyrazolopyrimidine as highly potent B-Raf inhibitors with in vivo activity” (J Med Chem, 2010)
# The source made the active and inactive calls. No cut-off for these calls is given here.
# Tested on: not listed separately
# Assay: Half life in human liver microsomes
# Format: ADME, Microsome
# Details: not given
row,Structure (SMILES),half-life [min]
1,CC(C)N1C[C@@H]2C[C@H]1CN2c1cc(F)c(-c2ccnc3c(-c4cccc5[nH]ncc45)c(-c4ccncc4)nn23)c(F)c1,5
2,CCN1C[C@@H]2C[C@H]1CN2c1cc(F)c(-c2ccnc3c(-c4cccc5[nH]ncc45)c(-c4ccncc4)nn23)c(F)c1,11
3,Fc1cc(N2C[C@@H]3C[C@H]2CN3C2CCC2)cc(F)c1-c1ccnc2c(-c3cccc4[nH]ncc34)c(-c3ccncc3)nn12,3
4,CC(C)CN1C[C@@H]2C[C@H]1CN2c1cc(F)c(-c2ccnc3c(-c4cccc5[nH]ncc45)c(-c4ccncc4)nn23)c(F)c1,3
5,CN1C[C@@H]2C[C@H]1CN2c1ccc(-c2ccnc3c(-c4cccc5[nH]ncc45)c(-c4ccncc4)nn23)c(F)c1,17

# Tested on: Serine/threonine-protein kinase B-raf (Homo sapiens), P15056 [V600E]
# Sequence (P15056 whole entry V600E): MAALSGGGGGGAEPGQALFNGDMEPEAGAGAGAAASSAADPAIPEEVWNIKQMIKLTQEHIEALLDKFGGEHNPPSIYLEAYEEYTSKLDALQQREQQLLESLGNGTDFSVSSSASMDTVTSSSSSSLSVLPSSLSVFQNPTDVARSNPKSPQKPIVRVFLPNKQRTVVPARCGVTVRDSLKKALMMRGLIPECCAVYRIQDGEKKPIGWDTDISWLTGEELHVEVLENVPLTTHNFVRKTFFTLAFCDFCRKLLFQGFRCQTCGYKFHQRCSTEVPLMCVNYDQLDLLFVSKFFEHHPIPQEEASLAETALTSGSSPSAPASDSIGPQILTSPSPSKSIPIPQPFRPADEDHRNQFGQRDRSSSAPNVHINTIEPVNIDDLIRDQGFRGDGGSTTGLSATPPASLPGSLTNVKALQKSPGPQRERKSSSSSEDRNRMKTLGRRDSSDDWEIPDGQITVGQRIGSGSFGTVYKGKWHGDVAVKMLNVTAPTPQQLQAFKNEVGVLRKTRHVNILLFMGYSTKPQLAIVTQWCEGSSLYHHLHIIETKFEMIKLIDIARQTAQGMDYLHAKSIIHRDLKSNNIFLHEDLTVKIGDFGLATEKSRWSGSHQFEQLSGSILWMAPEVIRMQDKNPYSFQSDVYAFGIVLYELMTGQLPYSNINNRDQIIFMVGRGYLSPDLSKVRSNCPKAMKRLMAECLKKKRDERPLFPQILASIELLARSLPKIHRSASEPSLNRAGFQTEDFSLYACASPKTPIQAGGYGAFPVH
# Assay: Inhibition of BRAF V600E mutant in human A375 cells assessed as reduction of ERK phosphorylation
# Format: cell-based
# Details: A-375
row,Structure (SMILES),inhibition
1,CN1C[C@@H]2C[C@H]1CN2c1ccc(-c2ccnc3c(-c4cccc(O)c4)c(-c4ccncc4)nn23)cc1,Active
2,CN1C[C@@H]2C[C@H]1CN2c1ccc(-c2ccnc3c(-c4cccc5[nH]ncc45)c(-c4ccncc4)nn23)c(F)c1,Active

# Tested on: A-375
# Assay: Growth inhibition of human A375 cells after 4 days by MTT assay
# Format: functional, cell-based
# Details: A-375, 96 h
row,Structure (SMILES),IC50 [nM]
1,Cc1cc(N2C[C@@H]3C[C@H]2CN3C)ccc1-c1ccnc2c(-c3ccc(F)c4[nH]ncc34)c(-c3ccncc3)nn12,188
2,Fc1cc(CN2C[C@H]3C[C@@H]2CO3)ccc1-c1ccnc2c(-c3cccc4[nH]ncc34)c(-c3ccncc3)nn12,78
3,CN1C[C@@H]2C[C@H]1CN2c1ccc(-c2ccnc3c(-c4ccc(F)c5[nH]ncc45)c(-c4ccncc4)nn23)c(F)c1,33
4,CC(C)N1C[C@@H]2C[C@H]1CN2c1cc(F)c(-c2ccnc3c(-c4cccc5[nH]ncc45)c(-c4ccncc4)nn23)c(F)c1,55
5,CN1C[C@@H]2C[C@H]1CN2c1ccc(-c2ccnc3c(-c4cccc5[nH]ncc45)c(-c4ccncc4)nn23)cc1C(F)(F)F,273
6,c1cc(-c2c(-c3ccncc3)nn3c(-c4ccc(CN5C[C@@H]6C[C@H]5CN6)cc4)ccnc23)c2cn[nH]c2c1,9480
7,CN1C[C@@H]2C[C@H]1CN2c1ccc(-c2ccnc3c(-c4ccc(F)c5[nH]ncc45)c(-c4ccncc4)nn23)cc1,68
8,CN1C[C@@H]2C[C@H]1CN2c1cc(F)c(-c2ccnc3c(-c4cccc5[nH]ncc45)c(-c4ccncc4)nn23)cc1F,87
9,CN1C[C@@H]2C[C@H]1CN2c1cc(F)c(-c2ccnc3c(-c4ccc(F)c5[nH]ncc45)c(-c4ccncc4)nn23)c(F)c1,17
10,CN1C[C@@H]2C[C@H]1CN2c1ccc(-c2ccnc3c(-c4cccc5[nH]ncc45)c(-c4ccncc4)nn23)c(F)c1F,107
11,CCN1C[C@@H]2C[C@H]1CN2c1cc(F)c(-c2ccnc3c(-c4cccc5[nH]ncc45)c(-c4ccncc4)nn23)c(F)c1,56
12,CN1C[C@@H]2C[C@H]1CN2c1c(F)cc(-c2ccnc3c(-c4cccc5[nH]ncc45)c(-c4ccncc4)nn23)cc1F,1250
13,Cc1cc(N2C[C@@H]3C[C@H]2CN3C)ccc1-c1ccnc2c(-c3cccc4[nH]ncc34)c(-c3ccncc3)nn12,137
14,Fc1cc(CN2C3COCC2COC3)ccc1-c1ccnc2c(-c3cccc4[nH]ncc34)c(-c3ccncc3)nn12,304
15,CN1C[C@@H]2CC[C@H]1CN2c1ccc(-c2ccnc3c(-c4cccc5[nH]ncc45)c(-c4ccncc4)nn23)cc1,185
16,Fc1cc(N2C[C@@H]3C[C@H]2CN3C2CCC2)cc(F)c1-c1ccnc2c(-c3cccc4[nH]ncc34)c(-c3ccncc3)nn12,78
17,CN(C)c1cc(N2C[C@@H]3C[C@H]2CN3C)ccc1-c1ccnc2c(-c3cccc4[nH]ncc34)c(-c3ccncc3)nn12,1850
18,CN1C[C@@H]2C[C@H]1CN2c1ccc(-c2ccnc3c(-c4cccc(O)c4)c(-c4ccncc4)nn23)cc1,77
19,CN1C[C@@H]2C[C@H]1CN2c1ccc(-c2ccnc3c(-c4cccc5[nH]ncc45)c(-c4ccncc4)nn23)cc1,202
20,CN1C[C@@H]2CC[C@H]1CN2c1ccc(-c2ccnc3c(-c4cccc5[nH]ncc45)c(-c4ccncc4)nn23)c(F)c1,118
21,Fc1cc(CN2C[C@@H]3C[C@H]2CO3)ccc1-c1ccnc2c(-c3cccc4[nH]ncc34)c(-c3ccncc3)nn12,268
22,c1cc(-c2c(-c3ccncc3)nn3c(-c4ccc(CN5C[C@@H]6C[C@H]5CO6)cc4)ccnc23)c2cn[nH]c2c1,945
23,CN1C[C@@H]2C[C@H]1CN2c1ccc(-c2ccnc3c(-c4cccc5[nH]ncc45)c(-c4ccncc4)nn23)c2ccccc12,25000
24,CN1C[C@@H]2C[C@H]1CN2c1ccc(-c2ccnc3c(-c4cccc5[nH]ncc45)c(-c4ccncc4)nn23)c(Cl)c1,39
25,CN1C[C@@H]2C[C@H]1CN2c1c(F)c(F)c(-c2ccnc3c(-c4cccc5[nH]ncc45)c(-c4ccncc4)nn23)c(F)c1F,70
26,CC(C)CN1C[C@@H]2C[C@H]1CN2c1cc(F)c(-c2ccnc3c(-c4cccc5[nH]ncc45)c(-c4ccncc4)nn23)c(F)c1,89
27,CN1C[C@@H]2C[C@H]1CN2c1ccc(-c2ccnc3c(-c4cccc5[nH]ncc45)c(-c4ccncc4)nn23)c(F)c1,44
28,CN1C[C@@H]2C[C@H]1CN2c1cccc(-c2ccnc3c(-c4cccc5[nH]ncc45)c(-c4ccncc4)nn23)c1,1400

# Tested on: not listed separately
# Assay: Half life in nude mouse liver microsomes
# Format: ADME, Microsome
# Details: not given
row,Structure (SMILES),half-life [min]
1,CC(C)N1C[C@@H]2C[C@H]1CN2c1cc(F)c(-c2ccnc3c(-c4cccc5[nH]ncc45)c(-c4ccncc4)nn23)c(F)c1,17
2,Fc1cc(N2C[C@@H]3C[C@H]2CN3C2CCC2)cc(F)c1-c1ccnc2c(-c3cccc4[nH]ncc34)c(-c3ccncc3)nn12,5
3,CC(C)CN1C[C@@H]2C[C@H]1CN2c1cc(F)c(-c2ccnc3c(-c4cccc5[nH]ncc45)c(-c4ccncc4)nn23)c(F)c1,4
4,CN1C[C@@H]2C[C@H]1CN2c1ccc(-c2ccnc3c(-c4cccc5[nH]ncc45)c(-c4ccncc4)nn23)c(F)c1,> 30

# Target: Serine/threonine-protein kinase B-raf (Homo sapiens, UniProt P15056)
# Sequence (P15056 whole entry): as the sequence (P15056 whole entry V600E) above, with E600V counted along it
# Assay: Inhibition of BRAF
# Details: not given
row,Structure (SMILES),IC50 [nM]
1,Cc1cc(N2C[C@@H]3C[C@H]2CN3C)ccc1-c1ccnc2c(-c3ccc(F)c4[nH]ncc34)c(-c3ccncc3)nn12,< 0.32
2,CN1C[C@@H]2C[C@H]1CN2c1ccc(-c2ccnc3c(-c4cccc5[nH]ncc45)c(-c4ccncc4)nn23)c(Br)c1,< 0.32
3,Fc1cc(CN2C[C@H]3C[C@@H]2CO3)ccc1-c1ccnc2c(-c3cccc4[nH]ncc34)c(-c3ccncc3)nn12,0.52
4,CN1C[C@@H]2C[C@H]1CN2c1ccc(-c2ccnc3c(-c4ccc(F)c5[nH]ncc45)c(-c4ccncc4)nn23)c(F)c1,< 0.1
5,CC(C)N1C[C@@H]2C[C@H]1CN2c1cc(F)c(-c2ccnc3c(-c4cccc5[nH]ncc45)c(-c4ccncc4)nn23)c(F)c1,< 0.32
6,c1cc(-c2c(-c3ccncc3)nn3c(-c4ccc(CN5C[C@@H]6C[C@H]5CN6)cc4)ccnc23)c2cn[nH]c2c1,2.3
7,CN1C[C@@H]2C[C@H]1CN2c1ccc(-c2ccnc3c(-c4ccc(F)c5[nH]ncc45)c(-c4ccncc4)nn23)cc1,0.5
8,CN1C[C@@H]2C[C@H]1CN2c1cc(F)c(-c2ccnc3c(-c4cccc5[nH]ncc45)c(-c4ccncc4)nn23)cc1F,0.38
9,CN1C[C@@H]2C[C@H]1CN2c1cc(F)c(-c2ccnc3c(-c4ccc(F)c5[nH]ncc45)c(-c4ccncc4)nn23)c(F)c1,0.11
10,CN1C[C@@H]2C[C@H]1CN2c1ccc(-c2ccnc3c(-c4cccc5[nH]ncc45)c(-c4ccncc4)nn23)c(F)c1F,0.61
11,CCN1C[C@@H]2C[C@H]1CN2c1cc(F)c(-c2ccnc3c(-c4cccc5[nH]ncc45)c(-c4ccncc4)nn23)c(F)c1,< 0.32
12,Cc1cc(N2C[C@@H]3C[C@H]2CN3C)ccc1-c1ccnc2c(-c3cccc4[nH]ncc34)c(-c3ccncc3)nn12,0.51
13,Fc1cc(CN2C3COCC2COC3)ccc1-c1ccnc2c(-c3cccc4[nH]ncc34)c(-c3ccncc3)nn12,0.77
14,CN1C[C@@H]2CC[C@H]1CN2c1ccc(-c2ccnc3c(-c4cccc5[nH]ncc45)c(-c4ccncc4)nn23)cc1,0.71
15,Fc1cc(N2C[C@@H]3C[C@H]2CN3C2CCC2)cc(F)c1-c1ccnc2c(-c3cccc4[nH]ncc34)c(-c3ccncc3)nn12,< 0.32
16,CN1C[C@@H]2C[C@H]1CN2c1ccc(-c2ccnc3c(-c4cccc5[nH]ncc45)c(-c4ccncc4)nn23)cc1,1.2
17,CN1C[C@@H]2CC[C@H]1CN2c1ccc(-c2ccnc3c(-c4cccc5[nH]ncc45)c(-c4ccncc4)nn23)c(F)c1,0.41
18,Fc1cc(CN2C[C@@H]3C[C@H]2CO3)ccc1-c1ccnc2c(-c3cccc4[nH]ncc34)c(-c3ccncc3)nn12,1.2
19,CN1C[C@@H]2C[C@H]1CN2c1ccc(-c2ccnc3c(-c4cccc5[nH]ncc45)c(-c4ccncc4)nn23)c2ccccc12,1
20,CN1C[C@@H]2C[C@H]1CN2c1ccc(-c2ccnc3c(-c4cccc5[nH]ncc45)c(-c4ccncc4)nn23)c(Cl)c1,< 0.1
21,CN1C[C@@H]2C[C@H]1CN2c1c(F)c(F)c(-c2ccnc3c(-c4cccc5[nH]ncc45)c(-c4ccncc4)nn23)c(F)c1F,0.35
22,CC(C)CN1C[C@@H]2C[C@H]1CN2c1cc(F)c(-c2ccnc3c(-c4cccc5[nH]ncc45)c(-c4ccncc4)nn23)c(F)c1,< 0.32
23,CN1C[C@@H]2C[C@H]1CN2c1ccc(-c2ccnc3c(-c4cccc5[nH]ncc45)c(-c4ccncc4)nn23)c(F)c1,0.23
